What was measured:
[1] = test system: G28A (RNA, aptamer) GGACGCGACCGAAAUGGUGAAGGACGGAUCCAGUGCGAAACACGCACUGUUGAGUAGAGUGUGAGCUCCGUAACUGGUCGCGUC; assay: fluorescence activation titration, Hill fit; settings: 100 mM K+, 5 mM Mg2+; 30 nM RNA; 10 mM Tris pH 7.5
[2] = test system: dU50 (RNA, aptamer, 2'-deoxyuridine at 37 (U50 in full-length numbering)) GGGGAGAAGGACGGGUCCAGUGCGAAACACGCACUGUUGAGUAGAGUGUGAGCUCCC; assay: fluorescence activation titration, Hill fit; settings: 100 mM K+, 5 mM Mg2+; 30 nM RNA; 10 mM Tris pH 7.5

CC1=N/C(=C\c2cc(F)c(O)c(F)c2)C(=O)N1C
KD [1]: 4400 ± 800 nM
KD [2]: 1100 ± 300 nM
